From patent US11427549B2, “Pyrimidinyloxy benzo-fused compounds as herbicides” (FMC Corporation, priority 2017, dated 2022)

Columns and labels:
[1] = system: barnyardgrass (Echinochloa crus-galli); experiment: Test A preemergence, barnyardgrass; assay type: in vivo; settings: Echinochloa crus-galli, pre-emergence, 240 h, 0 to 100 scale (0 no effect, 100 complete control), read-out: Plant response rating, Barnyardgrass
[2] = system: kochia (Kochia scoparia); experiment: Test A preemergence, kochia; assay type: in vivo; settings: Bassia scoparia, pre-emergence, 240 h, 0 to 100 scale (0 no effect, 100 complete control), read-out: Plant response rating, Kochia
[3] = system: ragweed (common ragweed, Ambrosia elatior); experiment: Test A preemergence, ragweed; assay type: in vivo; settings: Ambrosia artemisiifolia, pre-emergence, 240 h, 0 to 100 scale (0 no effect, 100 complete control), read-out: Plant response rating, Ragweed
[4] = system: ryegrass, Italian (Italian ryegrass, Lolium multiflorum); experiment: Test A preemergence, ryegrass, Italian; assay type: in vivo; settings: Lolium multiflorum, pre-emergence, 240 h, 0 to 100 scale (0 no effect, 100 complete control), read-out: Plant response rating, Ryegrass, Italian
[5] = system: pigweed (Amaranthus retroflexus); experiment: Test A preemergence, pigweed; assay type: in vivo; settings: Amaranthus retroflexus, pre-emergence, 240 h, 0 to 100 scale (0 no effect, 100 complete control), read-out: Plant response rating, Pigweed
[6] = system: barnyardgrass (Echinochloa crus-galli); experiment: Test A postemergence, barnyardgrass; assay type: in vivo; settings: Echinochloa crus-galli, post-emergence, 240 h, 0 to 100 scale (0 no effect, 100 complete control), read-out: Plant response rating, Barnyardgrass
[7] = system: kochia (Kochia scoparia); experiment: Test A postemergence, kochia; assay type: in vivo; settings: Bassia scoparia, post-emergence, 240 h, 0 to 100 scale (0 no effect, 100 complete control), read-out: Plant response rating, Kochia
[8] = system: ragweed (common ragweed, Ambrosia elatior); experiment: Test A postemergence, ragweed; assay type: in vivo; settings: Ambrosia artemisiifolia, post-emergence, 240 h, 0 to 100 scale (0 no effect, 100 complete control), read-out: Plant response rating, Ragweed
[9] = system: ryegrass, Italian (Italian ryegrass, Lolium multiflorum); experiment: Test A postemergence, ryegrass, Italian; assay type: in vivo; settings: Lolium multiflorum, post-emergence, 240 h, 0 to 100 scale (0 no effect, 100 complete control), read-out: Plant response rating, Ryegrass, Italian
[10] = system: foxtail, green (green foxtail, Setaria viridis); experiment: Test A postemergence, foxtail, green; assay type: in vivo; settings: Setaria, post-emergence, 240 h, 0 to 100 scale (0 no effect, 100 complete control), read-out: Plant response rating, Foxtail, Green
[11] = system: pigweed (Amaranthus retroflexus); experiment: Test A postemergence, pigweed; assay type: in vivo; settings: Amaranthus retroflexus, post-emergence, 240 h, 0 to 100 scale (0 no effect, 100 complete control), read-out: Plant response rating, Pigweed
[12] = system: wheat (Triticum aestivum); experiment: Test A postemergence, wheat; assay type: in vivo; settings: Triticum aestivum, post-emergence, 240 h, 0 to 100 scale (0 no effect, 100 complete control), read-out: Plant response rating, Wheat
[13] = system: corn (Zea mays); experiment: Test A postemergence, corn; assay type: in vivo; settings: Zea mays, post-emergence, 240 h, 0 to 100 scale (0 no effect, 100 complete control)
[14] = system: blackgrass (Alopecurus myosuroides); experiment: Test A postemergence, blackgrass; assay type: in vivo; settings: Alopecurus myosuroides, post-emergence, 240 h, 0 to 100 scale (0 no effect, 100 complete control), read-out: Plant response rating, Blackgrass
[15] = system: galium (catchweed bedstraw, Galium aparine); experiment: Test A postemergence, galium; assay type: in vivo; settings: Galium, post-emergence, 240 h, 0 to 100 scale (0 no effect, 100 complete control), read-out: Plant response rating, Galium
[16] = system: rice (Oryza sativa); experiment: Test B flooded paddy test, rice; settings: Oryza sativa, read-out: Plant response rating, Rice (0 to 100 scale, 0 is no effect, 100 is complete control)
[17] = system: ducksalad (Heteranthera limosa); experiment: Test B flooded paddy test, ducksalad; settings: Heteranthera limosa, read-out: Plant response rating, Ducksalad (0 to 100 scale, 0 is no effect, 100 is complete control)
[18] = system: barnyardgrass (Echinochloa crus-galli); experiment: Test B flooded paddy test, barnyardgrass; settings: Echinochloa crus-galli, read-out: Plant response rating, Barnyardgrass (0 to 100 scale, 0 is no effect, 100 is complete control)

CCCC1OC(=O)Cc2cccc(Oc3ncc(Cl)cn3)c21 (stereo not drawn) [Compound 35, 8-[(5-Chloro-2-pyrimidinyl)oxy]-1,4-dihydro-1-propyl-3H-2-benzopyran-3-one]
pest or weed control at 31 g/ha ([1]; 31 g ai/ha): 0% | pest or weed control at 125 g/ha ([1]; 125 g ai/ha): 10% | pest or weed control at 31 g/ha ([2]; 31 g ai/ha): 0% | pest or weed control at 125 g/ha ([2]; 125 g ai/ha): 0% | pest or weed control at 31 g/ha ([3]; 31 g ai/ha): 0% | pest or weed control at 125 g/ha ([3]; 125 g ai/ha): 0% | pest or weed control at 31 g/ha ([4]; 31 g ai/ha): 0% | pest or weed control at 125 g/ha ([4]; 125 g ai/ha): 0% | pest or weed control at 31 g/ha ([5]; 31 g ai/ha): 0% | pest or weed control at 125 g/ha ([5]; 125 g ai/ha): 10% | pest or weed control at 31 g/ha ([6]; 31 g ai/ha): 0% | pest or weed control at 125 g/ha ([6]; 125 g ai/ha): 0% | pest or weed control at 31 g/ha ([7]; 31 g ai/ha): 20% | pest or weed control at 125 g/ha ([7]; 125 g ai/ha): 50% | pest or weed control at 31 g/ha ([8]; 31 g ai/ha): 0% | pest or weed control at 125 g/ha ([8]; 125 g ai/ha): 10% | pest or weed control at 31 g/ha ([9]; 31 g ai/ha): 0% | pest or weed control at 125 g/ha ([9]; 125 g ai/ha): 0% | pest or weed control at 31 g/ha ([10]; 31 g ai/ha): 10% | pest or weed control at 125 g/ha ([10]; 125 g ai/ha): 10% | pest or weed control at 31 g/ha ([11]; 31 g ai/ha): 30% | pest or weed control at 125 g/ha ([11]; 125 g ai/ha): 50% | plant injury at 31 g/ha ([12]; 31 g ai/ha): 0% | plant injury at 125 g/ha ([12]; 125 g ai/ha): 0% | Corn plant response rating (crop injury, 0 = no effect, 100 = complete kill) at 31 g/ha ([13]; 31 g ai/ha): 0% | Corn plant response rating (crop injury, 0 = no effect, 100 = complete kill) at 125 g/ha ([13]; 125 g ai/ha): 0% | pest or weed control at 31 g/ha ([14]; 31 g ai/ha): 10% | pest or weed control at 125 g/ha ([14]; 125 g ai/ha): 10% | pest or weed control at 31 g/ha ([15]; 31 g ai/ha): 10% | pest or weed control at 125 g/ha ([15]; 125 g ai/ha): 30% | plant injury at 250 g/ha [16]: 0% | pest or weed control at 250 g/ha [17]: 0% | pest or weed control at 250 g/ha [18]: 0%
